Structures are written as SMILES.

The target in this assay is Jak2 (human Jak2 kinase domain, amino acids 808-1132) (Homo sapiens (Human), UniProt O60674). Kind of assay: Jak2 inhibition assay (Omnia kinase assay). As to conditions: read-out: Jak2 Enzyme (% inhibition at 1000 nM), Table 1; 1000 nM test compound. It counts as biochemical.
Chain of Jak2 (human Jak2 kinase domain, amino acids 808-1132) (O60674 808-1132): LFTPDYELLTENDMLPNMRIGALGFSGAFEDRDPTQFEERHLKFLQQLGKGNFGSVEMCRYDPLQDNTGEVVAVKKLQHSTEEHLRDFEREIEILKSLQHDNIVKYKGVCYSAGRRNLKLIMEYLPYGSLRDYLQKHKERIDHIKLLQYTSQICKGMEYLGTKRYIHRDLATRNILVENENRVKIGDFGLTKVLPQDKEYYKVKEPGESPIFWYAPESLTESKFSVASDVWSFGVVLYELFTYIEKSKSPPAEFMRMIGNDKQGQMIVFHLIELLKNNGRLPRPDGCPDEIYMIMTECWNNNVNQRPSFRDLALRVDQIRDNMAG
One may read the inhibition as the relative decrease from the control value, in per cent. For the molecule `COc1ncc(F)cc1[C@H]1CCCN1c1ccn2ncc(C(=O)NC(CO)CO)c2n1` [Example 160, (R)-N-(1,3-dihydroxypropan-2-yl)-5-(2-(5-fluoro-2-methoxypyridin-3-yl)pyrrolidin-1-y1)pyrazolo[1,5-a]pyrimidine-3-carboxamide], the inhibition at 1 µM turned out to be 8.5%.

`O=C(NCCN1CCOCC1)c1cnn2ccc(N3CCC[C@@H]3c3cc(F)ccc3F)nc12` [Example 4, (R)-5-(2-(2,5-difluorophenyl)pyrrolidin-1-yl)-N-(2-morpholinoethyl)pyrazolo[1,5-a]pyrimidine-3-carboxamide]: the inhibition at 1 µM is 18.8%.

In the case of `CC1(C)OCC(COc2ccc(F)cc2[C@H]2CCCN2c2ccn3ncc(C(N)=O)c3n2)O1` (stereo partly drawn) [Example 205, 5-((2R)-2-(2-((2,2-dimethyl-1,3-dioxolan-4-yl)methoxy)-5-fluorophenyl)pyrrolidin-1-yl)pyrazolo[1,5-a]pyrimidine-3-carboxamide], the inhibition at 1 µM amounted to 7.2%.

Turning to `O=C(N[C@H]1CC[C@H](C(=O)O)CC1)c1cnn2ccc(N3CCC[C@@H]3c3cc(F)ccc3F)nc12` [Example 33, Trans-4-(5-((R)-2-(2,5-difluorophenyl)pyrrolidin-1-yl)pyrazolo[1,5-a]pyrimidine-3-carboxamido)cyclohexanecarboxylic Acid], the inhibition at 1 µM is 99.9%.

Consider `O=C(NCC(F)(F)F)c1cnn2ccc(N3CCC[C@@H]3c3cncc(F)c3)nc12` [Example 131, (R)-5-(2-(5-fluoropyridin-3-yl)pyrrolidin-1-yl)-N-(2,2,2-trifluoroethyl)pyrazolo[1,5-a]pyrimidine-3-carboxamide], for which the inhibition at 1 µM stood at 14.6%.

For `C[C@H](NC(=O)c1cnn2ccc(N3CCC[C@@H]3c3cc(F)cn(C)c3=O)nc12)C1CC1` [Example 236, N-((S)-1-cyclopropylethyl)-5-((R)-2-(5-fluoro-1-methyl-2-oxo-1,2-dihydropyridin-3-yl)pyrrolidin-1-yl)pyrazolo[1,5-a]pyrimidine-3-carboxamide], the inhibition at 1 µM was determined as 69.1%.

Take `COc1ncc(F)cc1[C@H]1CCCN1c1ccn2ncc(C(=O)NC[C@@H](O)CO)c2n1` [Example 150, N-((R)-2,3-dihydroxypropyl)-5-((R)-2-(5-fluoro-2-methoxypyridin-3-yl)pyrrolidin-1-yl)pyrazolo[1,5-a]pyrimidine-3-carboxamide]: the inhibition at 1 µM stood at 8.9%.

On to `CONC(=O)c1cnn2ccc(N3CCC[C@@H]3c3cncc(F)c3)nc12` [Example 73, (R)-5-(2-(5-fluoropyridin-3-yl)pyrrolidin-1-yl)-N-methoxypyrazolo[1,5-a]pyrimidine-3-carboxamide], for which the inhibition at 1 µM turned out to be 4.9%.

As to `O=C(Nc1ccc(F)cn1)c1cnn2ccc(N3CCC[C@@H]3c3cncc(F)c3)nc12` [Example 95, (R)—N-(5-fluoropyridin-2-yl)-5-(2-(5-fluoropyridin-3-yl)pyrrolidin-1-yl)pyrazolo[1,5-a]pyrimidine-3-carboxamide], the inhibition at 1 µM came out at 19.2%.

Turning to `O=C(NCCO)c1cnn2ccc(N3CCC[C@@H]3c3cncc(F)c3)nc12` [Example 112, (R)-5-(2-(5-fluoropyridin-3-yl)pyrrolidin-1-yl)-N-(2-hydroxyethyl)pyrazolo[1,5-a]pyrimidine-3-carboxamide], the inhibition at 1 µM was 3.2%.

As for `CNC(=O)c1cnn2ccc(N3CCC[C@@H]3c3cc(F)cnc3OC)nc12` [Example 153, (R)-5-(2-(5-fluoro-2-methoxypyridin-3-yl)pyrrolidin-1-yl)-N-methylpyrazolo[1,5-a]pyrimidine-3-carboxamide], the inhibition at 1 µM turned out to be 33.8%.

Consider `O=C(N[C@H]1CC[C@H](O)CC1)c1cnn2ccc(N3CCC[C@@H]3c3cccc(F)c3)nc12` [Example 35, 5-((R)-2-(3-fluorophenyl)pyrrolidin-1-yl)-N-((trans)-4-hydroxycyclohexyl)pyrazolo[1,5-a]pyrimidine-3-carboxamide], for which the inhibition at 1 µM came out at 77.4%.

Values taken from US10251889B2, “Substituted pyrazolo[1,5-a]pyrimidine compounds as Trk kinase inhibitors” (Array BioPharma, Inc., priority 2009, dated 2019).
